Results: publication PMC10141580, “Cyclic Dichalcogenides Extend the Reach of Bioreductive Prodrugs to Harness Thiol/Disulfide Oxidoreductases: Applications to seco-Duocarmycins Targeting the Thioredoxin System” (ACS Central Science, 2023)
Read-outs that look alike come from different tables or passages of the source.

System: NCI-60 standardized human tumor cell line panel
Experiment: cells
Assay type: cell-based
Conditions: for NCI-60 screening: Log(GI50): log10 of GI50 in M; for NCI-60 screening: Log(RedIndex): log10 reductive index vs P-CC60

COc1cc2cc(C(=O)N3CC(CCl)c4c3cc(OC(=O)N3CCN(C)C5CSSCC53)c3ccccc43)[nH]c2c(OC)c1OC (mixture of isomers) [Me-SS66T-CBI-TMI]
NCI-60 screening: Log(GI50) (786-0 (RE) cell line): -7.79
NCI-60 screening: Log(RedIndex) (786-0 (RE) cell line): 2.03
GI50 (786-0 (RE) cell line, read-out: NCI-60 screening: Raw GI50): 16 nM
GI50 (786-0, read-out: GI50): 16 nM
NCI-60 screening: Log(GI50) (A498 (RE) cell line): -6.9
NCI-60 screening: Log(RedIndex) (A498 (RE) cell line): 1.34
GI50 (A498 (RE) cell line, read-out: NCI-60 screening: Raw GI50): 130 nM
GI50 (A498, read-out: GI50): 130 nM
GI50 (A549/ATCC, read-out: GI50): 12 nM
NCI-60 screening: Log(GI50) (ACHN (RE) cell line): -8.02
NCI-60 screening: Log(RedIndex) (ACHN (RE) cell line): 1.71
GI50 (ACHN (RE) cell line, read-out: NCI-60 screening: Raw GI50): 9.5 nM
GI50 (ACHN, read-out: GI50): 9.5 nM
GI50 (BT-549, read-out: GI50): 15 nM
NCI-60 screening: Log(GI50) (CAKI-1 (RE) cell line): -7.56
NCI-60 screening: Log(RedIndex) (CAKI-1 (RE) cell line): 1.74
GI50 (CAKI-1 (RE) cell line, read-out: NCI-60 screening: Raw GI50): 27 nM
GI50 (CAKI-1, read-out: GI50): 27 nM
GI50 (CCRF-CEM, read-out: GI50): 26 nM
GI50 (COLO 205, read-out: GI50): 49 nM
NCI-60 screening: Log(GI50) (DU-145 (PR) cell line): -8.46
NCI-60 screening: Log(RedIndex) (DU-145 (PR) cell line): 2.12
GI50 (DU-145, read-out: GI50): 3.5 nM
GI50 (EKVX, read-out: GI50): 18 nM
GI50 (HCC-2998, read-out: GI50): 15 nM
GI50 (HCT-15, read-out: GI50): 22 nM
GI50 (HCT-116, read-out: GI50): 18 nM
GI50 (HL-60(TB), read-out: GI50): 12 nM
GI50 (HOP-62, read-out: GI50): 12 nM
GI50 (HOP-92, read-out: GI50): 27 nM
GI50 (HT29, read-out: GI50): 34 nM
NCI-60 screening: Log(GI50) (IGROV1 (OV) cell line): -7.23
NCI-60 screening: Log(RedIndex) (IGROV1 (OV) cell line): 1.6
GI50 (IGROV1 (OV) cell line, read-out: NCI-60 screening: Raw GI50): 58 nM
GI50 (IGROV1, read-out: GI50): 58 nM
GI50 (K-562, read-out: GI50): 25 nM
GI50 (KM12, read-out: GI50): 44 nM
GI50 (LOX IMVI, read-out: GI50): 12 nM
GI50 (M14, read-out: GI50): 10 nM
GI50 (MALME-3M, read-out: GI50): 14 nM
GI50 (MCF7, read-out: GI50): 5.2 nM
GI50 (MDA-MB-435, read-out: GI50): 27 nM
GI50 (MDA-MB-468, read-out: GI50): 12 nM
GI50 (MOLT-4, read-out: GI50): 9.9 nM
GI50 (NCI-H23, read-out: GI50): 9.5 nM
GI50 (NCI-H226, read-out: GI50): 95 nM
NCI-60 screening: Log(GI50) (NCI-H460 (LC) cell line): -8.32
NCI-60 screening: Log(RedIndex) (NCI-H460 (LC) cell line): 2.03
GI50 (NCI-H460, read-out: GI50): 4.8 nM
NCI-60 screening: Log(GI50) (NCI-H522 (LC) cell line): -7.91
NCI-60 screening: Log(RedIndex) (NCI-H522 (LC) cell line): 2.14
GI50 (NCI-H522 (LC) cell line, read-out: NCI-60 screening: Raw GI50): 12 nM
GI50 (NCI-H522, read-out: GI50): 12 nM
NCI-60 screening: Log(GI50) (OVCAR-3 (OV) cell line): -7.28
NCI-60 screening: Log(RedIndex) (OVCAR-3 (OV) cell line): 1.6
GI50 (OVCAR-3, read-out: GI50): 53 nM
NCI-60 screening: Log(GI50) (OVCAR-4 (OV) cell line): -6.8
NCI-60 screening: Log(RedIndex) (OVCAR-4 (OV) cell line): 1.17
GI50 (OVCAR-4 (OV) cell line, read-out: NCI-60 screening: Raw GI50): 160 nM
GI50 (OVCAR-4, read-out: GI50): 160 nM
NCI-60 screening: Log(GI50) (OVCAR-5 (OV) cell line): -7.44
NCI-60 screening: Log(RedIndex) (OVCAR-5 (OV) cell line): 2.15
GI50 (OVCAR-5, read-out: GI50): 36 nM
NCI-60 screening: Log(GI50) (OVCAR-8 (OV) cell line): -8.06
NCI-60 screening: Log(RedIndex) (OVCAR-8 (OV) cell line): 2.28
GI50 (OVCAR-8, read-out: GI50): 8.6 nM
NCI-60 screening: Log(GI50) (PC-3 (PR) cell line): -7.61
NCI-60 screening: Log(RedIndex) (PC-3 (PR) cell line): 2.11
GI50 (PC-3 (PR) cell line, read-out: NCI-60 screening: Raw GI50): 25 nM
GI50 (PC-3, read-out: GI50): 25 nM
GI50 (RPMI-8226, read-out: GI50): 34 nM
NCI-60 screening: Log(GI50) (RXF 393 (RE) cell line): -8.02
NCI-60 screening: Log(RedIndex) (RXF 393 (RE) cell line): 2.05
GI50 (RXF 393 (RE) cell line, read-out: NCI-60 screening: Raw GI50): 9.5 nM
GI50 (RXF 393, read-out: GI50): 9.5 nM
GI50 (SF-268, read-out: GI50): 15 nM
GI50 (SF-295, read-out: GI50): 9.7 nM
GI50 (SF-539, read-out: GI50): 10 nM
GI50 (SK-MEL-5, read-out: GI50): 13 nM
GI50 (SK-MEL-28, read-out: GI50): 15 nM
NCI-60 screening: Log(GI50) (SK-OV-3 (OV) cell line): -7.91
NCI-60 screening: Log(RedIndex) (SK-OV-3 (OV) cell line): 2.24
GI50 (SK-OV-3 (OV) cell line, read-out: NCI-60 screening: Raw GI50): 12 nM
GI50 (SK-OV-3, read-out: GI50): 12 nM
NCI-60 screening: Log(GI50) (SN12C (RE) cell line): -7.77
NCI-60 screening: Log(RedIndex) (SN12C (RE) cell line): 1.85
GI50 (SN12C, read-out: GI50): 17 nM
GI50 (SNB-19, read-out: GI50): 16 nM
GI50 (SR, read-out: GI50): 4 nM
GI50 (SW-620, read-out: GI50): 58 nM
GI50 (T-47D, read-out: GI50): 50 nM
NCI-60 screening: Log(GI50) (TK-10 (RE) cell line): -6.9
NCI-60 screening: Log(RedIndex) (TK-10 (RE) cell line): 1.35
GI50 (TK-10 (RE) cell line, read-out: NCI-60 screening: Raw GI50): 130 nM
GI50 (TK-10, read-out: GI50): 130 nM
